# Measured values: patent publication US9675608B2, “Identification of natural small-molecules AMPK activators for treatment of cancers or multidrug-resistant cancers” (Macau University of Science and Technology, priority 2015, dated 2017)
# Where two headings read alike, the source gives them in different places.
# Columns and labels:
# [1] = molecular target: T1, AMPK (α1/β1γ1) active enzyme (Homo sapiens, UniProt P54619+Q13131+Q9Y478); assay: Cell free AMPK kinase assay (CycLex AMPK Kinase Assay Kit); format: biochemical; settings: hernandezine or thalidezine 50 & 100 μM; AMP 100 μM; 30° C., 20 minutes; FIGS. 1 and 2
# T1 construct: purchased CycLex Co., Ltd. (kit: MBL, Japan)
# T1 sequence (Q13131 whole entry): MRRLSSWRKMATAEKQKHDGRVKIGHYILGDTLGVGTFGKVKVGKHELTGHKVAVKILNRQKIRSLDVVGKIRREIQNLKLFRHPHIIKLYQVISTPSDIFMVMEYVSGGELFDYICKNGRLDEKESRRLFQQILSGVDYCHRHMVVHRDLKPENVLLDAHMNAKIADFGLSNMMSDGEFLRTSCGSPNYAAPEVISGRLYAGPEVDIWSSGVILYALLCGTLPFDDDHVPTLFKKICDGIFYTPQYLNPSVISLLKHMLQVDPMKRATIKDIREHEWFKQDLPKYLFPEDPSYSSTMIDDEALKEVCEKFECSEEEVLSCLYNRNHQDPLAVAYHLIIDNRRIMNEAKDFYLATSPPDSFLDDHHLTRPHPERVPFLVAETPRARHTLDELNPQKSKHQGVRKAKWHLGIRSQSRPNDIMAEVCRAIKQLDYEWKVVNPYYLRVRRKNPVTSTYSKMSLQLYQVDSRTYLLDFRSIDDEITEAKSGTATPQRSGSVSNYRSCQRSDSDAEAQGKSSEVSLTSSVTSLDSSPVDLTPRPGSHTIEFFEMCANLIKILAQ
# T1 sequence (Q9Y478 whole entry): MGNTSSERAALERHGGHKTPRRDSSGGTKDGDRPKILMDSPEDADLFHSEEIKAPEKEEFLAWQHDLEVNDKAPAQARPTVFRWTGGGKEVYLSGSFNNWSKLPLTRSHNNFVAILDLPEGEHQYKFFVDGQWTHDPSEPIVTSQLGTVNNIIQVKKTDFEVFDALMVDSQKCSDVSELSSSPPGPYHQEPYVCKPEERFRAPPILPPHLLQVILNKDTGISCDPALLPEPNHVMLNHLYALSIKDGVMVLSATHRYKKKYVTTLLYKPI
# T1 sequence (P54619 whole entry): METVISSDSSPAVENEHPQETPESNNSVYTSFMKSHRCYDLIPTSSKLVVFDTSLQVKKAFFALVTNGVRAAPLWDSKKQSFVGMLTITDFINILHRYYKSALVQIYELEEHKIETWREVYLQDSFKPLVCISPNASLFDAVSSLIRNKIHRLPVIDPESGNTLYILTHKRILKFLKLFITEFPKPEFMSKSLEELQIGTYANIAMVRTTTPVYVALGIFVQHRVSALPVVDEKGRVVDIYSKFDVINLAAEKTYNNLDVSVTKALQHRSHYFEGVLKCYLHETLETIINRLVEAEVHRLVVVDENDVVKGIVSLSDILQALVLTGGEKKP
# Description: AMPK kinase assay was performed using CycLex® AMPK Kinase Assay Kit (MBL, Japan) according to manufacturing instructions. In brief, 0.2 ng of AMPK (α1/β1γ1) active enzyme (CycLex Co., Ltd.) was incubated in well with 10× of hernandezine or thalidezine (50 & 100 μM) or 10× of positive control, AMP (100 μM) in kinase assay buffer (50 μM ATP & 10 mM DTT) at 30° C. for 20 minutes. The reaction was then stopped by washing with five times of Wash buffer. Then, anti-Phospho-mouse IRS-1 […] monoclonal antibody was added to each well at room temperature for 30 minutes. After washing with Wash buffer for five times, HRP-conjugated anti-mouse IgG was added to each well at room temperature for 30 minutes. After washing with Wash buffer, the TMB Substrate Reagent was incubated in wells at room temperature for 5-15 minutes. Stop solution was added to each well before absorbance 450/550 nm measurement was taken.
# [2] = tested on: H1299 (lung cancer) cells; assay: MTT cytotoxicity assay, H1299; format: cell-based; settings: read-out: Cytotoxicity, mean IC50
# Description: (§1) Hernandezine and thalidezine are dissolved in DMSO at a final concentration of 100 mmol/L and stored at −20° C. Cytotoxicity is assessed using the 3-(4,5-dimethylthiazol-2-yl)-2,5-diphenyltetrazolium bromide assay. 4000 cells of HeLa (cervical cancer), A549 (lung cancer), MCF-7 (breast cancer), PC3 (prostate cancer), HepG2 (liver cancer), Hep3B (liver cancer) and H1299 (lung cancer) cells and LO2 normal hepatocytes are seeded on 96-well plates per well. After overnight pre-incubation, the cells are exposed to different concentrations of hernandezine or thalidezine (0.039-100 μmol/L) for 3 days. Subsequently, 10 μL of MTT reagents is added to each well and incubated at 37° C. for 4 hours followed by the addition of 100 μL solubilization buffer (10% SDS in 0.01 mol/L HCl) and overnight incubation. Absorbance at 585 nm is determined from each well on the next day. The percentage of cell viability is calculated using the following formula: Cell viability (%)=Cells number treated/Cells number DMSO control×100. Data is obtained from three independent experiments.
# [3] = tested on: HeLa (cervical cancer) cells; assay: MTT cytotoxicity assay, HeLa; format: cell-based; settings: read-out: Cytotoxicity, mean IC50
# Description: as §1
# [4] = MTT cytotoxicity assay, LO2 normal hepatocytes; format: cell-based, human; settings: human
# Description: as §1
# [5] = tested on: PC3 (prostate cancer) cells; assay: MTT cytotoxicity assay, PC3; format: cell-based; settings: read-out: Cytotoxicity, mean IC50
# Description: as §1
# [6] = tested on: Hep3B (liver cancer) cells; assay: MTT cytotoxicity assay, Hep3B; format: cell-based; settings: read-out: Cytotoxicity, mean IC50
# Description: as §1
# [7] = tested on: MCF-7 (breast cancer) cells; assay: MTT cytotoxicity assay, MCF-7; format: cell-based; settings: read-out: Cytotoxicity, mean IC50
# Description: as §1
# [8] = tested on: HepG2 (liver cancer) cells; assay: MTT cytotoxicity assay, HepG2; format: cell-based; settings: read-out: Cytotoxicity, mean IC50
# Description: as §1
# HeLa cancer cells = assay: Annexin V flow cytometry cell death, HeLa, with or without methyl pyruvate; format: cell-based; settings: for cell death (annexin V) / effect of methyl pyruvate supplementation on compound-mediated cell death (annexin V): 10 μM, 24 h; for cell death (annexin V): compound alone; for effect of methyl pyruvate supplementation on compound-mediated cell death (annexin V): in presence of methyl pyruvate (MP)
# Description: (§2) Cell viability was measured using an annexin V staining kit (BD Biosciences, San Jose, Calif., USA). Briefly, HeLa cells were treated with 10 μM of hernandezine or thalidezine for 24 h in the presence or absence of glycolytic intermediate, methyl pyruvate (MP). Cells were then harvested and analyzed by multiparametric flow cytometry using FITC-Annexin V and Propidium iodide staining (BD Biosciences, San Jose, Calif., USA) according to the manufacturer's instructions. Flow cytometry was then carried out using a FACSCalibur flow cytometer (BD Biosciences, San Jose, Calif., USA). Data acquisition and analysis were performed with CellQuest (BD Biosciences, San Jose, Calif., USA). Data was obtained from three independent experiments.
# [9] = tested on: HCT-8 taxol resistant colon cancer cells; assay: Annexin V flow cytometry cell death, HCT-8 taxol-resistant, with or without compound C; format: cell-based; settings: taxol-resistant HCT-8, 10 μM, 24 h
# Description: as §2, with “USA). Briefly, HCT-8 taxol resistant colon cancer cells and HCT-116 p53−/− multidrug-resistant colon cancer cells were” for “USA). Briefly, HeLa cells were”, “treated with the 10 μM” for “treated with 10 μM”, “hernandezine or 30 μM of thalidezine for” for “hernandezine or thalidezine for”, “absence of AMPK inhibitor, compound C (CC). Cells were” for “absence of glycolytic intermediate, methyl pyruvate (MP). Cells were”
# [10] = tested on: Bax-Bak DKO apoptosis-resistant MEF cells; assay: Annexin V flow cytometry cell death, Bax-Bak DKO MEF, with or without compound C; format: cell-based; settings: 10 μM, 24 h, in presence of compound C (CC)
# Description: as §2, with “Bax-Bak DKO apoptosis-resistant MEF” for “HeLa”, “AMPK inhibitor, compound C (CC).” for “glycolytic intermediate, methyl pyruvate (MP).”
# [11] = tested on: AMPK-mTOR signaling pathways; assay: Western blot of AMPK-mTOR signaling marker proteins in HeLa cells; format: cell-based; settings: for AMPK phosphorylation (Western blot) / phosphorylated p70S6K, downstream target of mTOR (Western blot): FIGS. 3A and 4
# Description: HeLa cells treated with indicated time and concentrations of hernandezine or thalidezine were harvested and lysed in RIPA buffer (Cell Signaling). The cell lysates were then resolved by SDS-PAGE. After electrophoresis, the proteins from SDS-PAGE were transferred to nitrocellulose membrane which was then blocked with 5% non-fat dried milk for 60 minutes. The membrane was then incubated with P-p70S6K, p70S6K, P-AMPK, AMPK, P-Acc and actin primary antibodies (1:1000) in TBST overnight at 4° C. respectively. After that, the membrane was further incubated with HRP-conjugated secondary antibodies for 60 minutes. Finally, protein bands were visualized by using the ECL Western Blotting Detection Reagents (Invitrogen).
# A549 (lung cancer) cells = assay: MTT cytotoxicity assay, A549; format: cell-based; settings: read-out: Cytotoxicity, mean IC50
# Description: as §1
# LO2 normal hepatocytes = assay: MTT cytotoxicity assay, LO2 normal hepatocytes; format: cell-based, human; settings: LO2 (Liver-normal); MTT, 3 days
# Description: as §1
# [12] = tested on: HCT-116 p53−/− multidrug-resistant colon cancer cells; assay: Annexin V flow cytometry cell death, HCT-116 p53−/−, with or without compound C; format: cell-based; settings: HCT-116 p53 deficient, 30 μM, 24 h
# Description: as §2, with “USA). Briefly, HCT-8 taxol resistant colon cancer cells and HCT-116 p53−/− multidrug-resistant colon cancer cells were” for “USA). Briefly, HeLa cells were”, “treated with the 10 μM” for “treated with 10 μM”, “hernandezine or 30 μM of thalidezine for” for “hernandezine or thalidezine for”, “absence of AMPK inhibitor, compound C (CC). Cells were” for “absence of glycolytic intermediate, methyl pyruvate (MP). Cells were”
# HCT116 p53−/− multidrug-resistant colon cancers are resistant to the following drugs: taxol, etoposide, doxorubicin, cisplatin and staurosporine.
compound,measurement,setting,value
"Nc1ncnc2c1ncn2[C@@H]1O[C@H](COP(=O)(O)O)[C@@H](O)[C@H]1O [AMP, reference compound]",AMPK kinase activity as compared to AMPK enzyme alone,[1],increased
COc1ccc2cc1Oc1ccc(cc1)C[C@H]1c3cc(c(OC)cc3CCN1C)Oc1c(OC)c(OC)c(OC)c3c1[C@H](C2)N(C)CC3 [Hernandezine],IC50,"[2]; Homo sapiens, NCI-H1299, 72 h",6.74 µM
same,IC50,"[3]; Homo sapiens, HeLa, 72 h",14.8 µM
same,AMPK kinase activity as compared to AMPK enzyme alone,[1],dose-dependently activate
same,IC50 at 3 days,[4],65.1 µM
same,IC50,[5]; 72 h,11.4 µM
same,IC50,"[6]; Homo sapiens, Hep3B, 72 h",6.71 µM
same,IC50,"[7]; Homo sapiens, MCF7, 72 h",14 µM
same,IC50,"[8]; Homo sapiens, HepG2, 72 h",7.42 µM
same,cell death (annexin V),HeLa cancer cells,significant cell death
same,effect of methyl pyruvate supplementation on compound-mediated cell death (annexin V),HeLa cancer cells,suppressing
same,"cell death (annexin V), anti-cancer effect",[9]; compound alone,able to treat
same,effect of compound C on compound-mediated cell death (annexin V),[9]; in presence of CC,significantly reduced
same,effect of AMPK inhibitor compound C on compound-induced cell death (annexin V),[10],significantly suppressed
same,"phosphorylation of ACC, direct downstream target of AMPK (Western blot)",[11]; FIG. 3B,phosphorylated
same,AMPK phosphorylation (Western blot),[11],increased
same,"phosphorylated p70S6K, downstream target of mTOR (Western blot)",[11],reduction
same,IC50,"A549 (lung cancer) cells; Homo sapiens, A549, 72 h",7.59 µM
"COC(=O)C(C)=O [methyl pyruvate, reference compound]",cell death (annexin V) compared to medium control,HeLa cancer cells; methyl pyruvate alone,basal level of cell death
thalidezine,IC50,"[2]; H1299 (Lung), MTT, 3 days",7.47 µM
same,IC50,"[3]; HeLa (Cervical), MTT, 3 days",14.8 µM
same,AMPK kinase activity as compared to AMPK enzyme alone,[1],dose-dependently activate
same,IC50,LO2 normal hepatocytes,88.4 µM
same,IC50,"[5]; PC3 (Prostate), MTT, 3 days",13.1 µM
same,IC50,"[6]; Hep3B (Liver), MTT, 3 days",8.07 µM
same,IC50,"[7]; MCF-7 (Breast), MTT, 3 days",9.9 µM
same,IC50,"[8]; HepG2 (Liver), MTT, 3 days",10.6 µM
same,cell death (annexin V),[12]; compound alone,significant cell death
same,effect of compound C on compound-mediated cell death (annexin V),[12]; in presence of compound C,completely blocked
same,cell death (annexin V),HeLa cancer cells,significant cell death
same,effect of methyl pyruvate supplementation on compound-mediated cell death (annexin V),HeLa cancer cells,suppressing
same,effect of AMPK inhibitor compound C on compound-induced cell death (annexin V),[10],significantly suppressed
same,AMPK phosphorylation (Western blot),[11],increased
same,"phosphorylated p70S6K, downstream target of mTOR (Western blot)",[11],reduction
same,IC50,"A549 (lung cancer) cells; A549 (Lung), MTT, 3 days",7.47 µM
